What was measured:
[1] = Food intake (tolerance / food aversion) of mice on supplemented diet; type: in vivo
Description: Mice were fed a low fat diet supplemented with either water (Veh) or quinic acid at low dose (25 mg/(kg*day)) or high dose (HD, 100 mg/(kg*day). Food intake was calculated between 12 and 18 weeks of age by weighing the food placed on the tray of the cage at the start of the week and the amount remaining 5 days later.
Mice were fed a high fat diet (60% fat) supplemented with either water (Veh) or quinic acid at low dose (25 mg/(kg*day)) or high dose (HD, 100 mg/(kg*day). Calculations for food intake were made in the same manner as for mice on chow diet.
Powder low fat diet (LFD; Research Diets Inc.; Ref: D12450J) was reconstituted into ˜20 gram pellets using 100 ml of water/kg of food. In addition to normal low fat diet pellets, two additional groups were made by adding quinic acid (QA) to the water used for reconstitution. A first group (low dose) was created, where 0.25 g of QA were added per Kg of food (this means, 0.25 grams per 100 ml of water). In a second group (high dose), 1 g of QA was added per Kg of food (this means, 1 gram per […] of water). […]
At 10 weeks of age, 60 male mice were randomly distributed in 6 groups (n=10 per group) and provided the different diets: LFD (Control, Low Dose and High Dose) or HFD (Control, Low Dose and High Dose). […] During this time, body weight and food intake was monitored weekly.

[2] = Body weight evolution on chow or high-fat diet; type: in vivo, mice; details: 25 mg/(kg*day), FIG. 3
Description: Body weight evolution on mice fed on chow diet or high-fat diet, supplemented with either water (Veh) or Quinic Acid (25 mg/(kg*day) was calculated. At 10 weeks of age, 60 male mice were randomly distributed in 6 groups (n=10 per group) and provided the different diets: LFD (Control, Low Dose and High Dose) or HFD (Control, Low Dose and High Dose). Mice were maintained for 8 weeks on their corresponding diets before phenotyping took place. During this time, body weight and food intake was monitored weekly.

[3] = Body lean and fat mass composition by Echo-MRI; type: in vivo, mice; details: 25 mg/(kg*day), FIG. 4
Description: Body lean and fat mass composition of 18 week-old mice fed on chow diet or high-fat diet, supplemented with either water (Veh) or Quinic Acid (25 mg/(kg*day) was measured by nuclear magnetic resonance using an Echo-Magnetic Resonance Imaging (Echo-MRI) system (Echo Medical System LCC).

[4] = Oxygen consumption and RER in CLAMS (indirect calorimetry); type: in vivo; details: 18 week-old mice on chow diet, 25 mg/(kg*day), dark phase, FIG. 6
[5] = Glucose excursion after intraperitoneal glucose (glucose tolerance); type: in vivo; details: 12 hr fasted 20 week-old mice on chow diet or HFD, 25 mg/(kg*day), i.p. glucose 2 g/kg, FIG. 7
Description: Glucose excursion curves were determined after an intraperitoneal injection of glucose (2 g/kg) on 12 hr fasted 20 week-old mice fed a chow diet or a HFD, supplemented with either water (Veh) or Quinic Acid (25 mg/(kg*day).

[6] = Glucose excursion after intraperitoneal insulin (insulin response); type: in vivo, mice; details: 6 hr fast, 25 mg/(kg*day)
Description: Glucose excursion curves were determined after an intraperitoneal injection of insulin (0.3 U/Kg) after a 6 hr fast on 22 week-old mice fed a chow diet, supplemented with either water (Veh) or Quinic Acid (25 mg/(kg*day). Glucose excursion curves were determined after an intraperitoneal injection of insulin (0.75 U/Kg) after a 6 hr fast on 22 week-old mice fed a high-fat diet, supplemented with either water (Veh) or Quinic Acid (25 mg/(kg*day).

[7] = Rectal temperature in cold room (thermogenic function); type: in vivo; details: 24-week old mice on chow diet, 25 mg/(kg*day), cold room 6° C., no food, measured every hour, FIG. 10
Description: Rectal temperature was measured at 8 a.m. (t=0) on 24-week old mice fed a chow diet, supplemented with either water (Veh) or Quinic Acid (25 mg/(kg*day). Then, mice were placed on a cold room (6° C.), with no access to food, and rectal temperature was measured every hour.

[8] = Treadmill endurance, increasing speed protocol; type: in vivo; details: 26 week-old high-fat fed mice, 25 mg/(kg*day), FIG. 11
Description: 26 week-old mice were place on a treadmill and endurance was evaluated by using a increasing speed protocol, as described previously (Lagouge et al., 2006, PMID: 17112576). The tests were performed on low and high fat-fed mice supplemented with either water (Veh) or Quinic Acid (25 mg/(kg*day).

[9] = target: T1, α-amylase (Sus scrofa, UniProt P00690); details: compared to caffeic and chlorogenic acids (Narita et al. 2009); cited from earlier work
T1 sequence (P00690 16-511): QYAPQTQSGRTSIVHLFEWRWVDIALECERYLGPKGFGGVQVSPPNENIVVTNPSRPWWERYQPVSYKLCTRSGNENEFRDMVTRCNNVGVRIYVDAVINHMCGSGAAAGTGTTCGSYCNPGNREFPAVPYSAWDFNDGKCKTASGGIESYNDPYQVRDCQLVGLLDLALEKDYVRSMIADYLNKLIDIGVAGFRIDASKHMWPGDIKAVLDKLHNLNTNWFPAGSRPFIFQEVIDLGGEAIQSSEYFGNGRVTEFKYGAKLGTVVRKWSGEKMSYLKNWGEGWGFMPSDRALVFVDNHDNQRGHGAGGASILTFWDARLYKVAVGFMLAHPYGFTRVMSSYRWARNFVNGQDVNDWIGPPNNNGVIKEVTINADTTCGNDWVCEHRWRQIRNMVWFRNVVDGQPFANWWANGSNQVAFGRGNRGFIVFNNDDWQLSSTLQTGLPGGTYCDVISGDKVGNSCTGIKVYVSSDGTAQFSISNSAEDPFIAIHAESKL

[10] = tested on: maltase; details: enzyme involved in digestion of carbohydrates; cited from earlier work
[11] = target: sucrase (Homo sapiens, UniProt P14410); details: enzyme involved in digestion of carbohydrates; cited from earlier work
[12] = tested on: lipase; details: enzyme involved in digestion of lipids; cited from earlier work

Chain of sucrase (P14410 whole entry, species assumed): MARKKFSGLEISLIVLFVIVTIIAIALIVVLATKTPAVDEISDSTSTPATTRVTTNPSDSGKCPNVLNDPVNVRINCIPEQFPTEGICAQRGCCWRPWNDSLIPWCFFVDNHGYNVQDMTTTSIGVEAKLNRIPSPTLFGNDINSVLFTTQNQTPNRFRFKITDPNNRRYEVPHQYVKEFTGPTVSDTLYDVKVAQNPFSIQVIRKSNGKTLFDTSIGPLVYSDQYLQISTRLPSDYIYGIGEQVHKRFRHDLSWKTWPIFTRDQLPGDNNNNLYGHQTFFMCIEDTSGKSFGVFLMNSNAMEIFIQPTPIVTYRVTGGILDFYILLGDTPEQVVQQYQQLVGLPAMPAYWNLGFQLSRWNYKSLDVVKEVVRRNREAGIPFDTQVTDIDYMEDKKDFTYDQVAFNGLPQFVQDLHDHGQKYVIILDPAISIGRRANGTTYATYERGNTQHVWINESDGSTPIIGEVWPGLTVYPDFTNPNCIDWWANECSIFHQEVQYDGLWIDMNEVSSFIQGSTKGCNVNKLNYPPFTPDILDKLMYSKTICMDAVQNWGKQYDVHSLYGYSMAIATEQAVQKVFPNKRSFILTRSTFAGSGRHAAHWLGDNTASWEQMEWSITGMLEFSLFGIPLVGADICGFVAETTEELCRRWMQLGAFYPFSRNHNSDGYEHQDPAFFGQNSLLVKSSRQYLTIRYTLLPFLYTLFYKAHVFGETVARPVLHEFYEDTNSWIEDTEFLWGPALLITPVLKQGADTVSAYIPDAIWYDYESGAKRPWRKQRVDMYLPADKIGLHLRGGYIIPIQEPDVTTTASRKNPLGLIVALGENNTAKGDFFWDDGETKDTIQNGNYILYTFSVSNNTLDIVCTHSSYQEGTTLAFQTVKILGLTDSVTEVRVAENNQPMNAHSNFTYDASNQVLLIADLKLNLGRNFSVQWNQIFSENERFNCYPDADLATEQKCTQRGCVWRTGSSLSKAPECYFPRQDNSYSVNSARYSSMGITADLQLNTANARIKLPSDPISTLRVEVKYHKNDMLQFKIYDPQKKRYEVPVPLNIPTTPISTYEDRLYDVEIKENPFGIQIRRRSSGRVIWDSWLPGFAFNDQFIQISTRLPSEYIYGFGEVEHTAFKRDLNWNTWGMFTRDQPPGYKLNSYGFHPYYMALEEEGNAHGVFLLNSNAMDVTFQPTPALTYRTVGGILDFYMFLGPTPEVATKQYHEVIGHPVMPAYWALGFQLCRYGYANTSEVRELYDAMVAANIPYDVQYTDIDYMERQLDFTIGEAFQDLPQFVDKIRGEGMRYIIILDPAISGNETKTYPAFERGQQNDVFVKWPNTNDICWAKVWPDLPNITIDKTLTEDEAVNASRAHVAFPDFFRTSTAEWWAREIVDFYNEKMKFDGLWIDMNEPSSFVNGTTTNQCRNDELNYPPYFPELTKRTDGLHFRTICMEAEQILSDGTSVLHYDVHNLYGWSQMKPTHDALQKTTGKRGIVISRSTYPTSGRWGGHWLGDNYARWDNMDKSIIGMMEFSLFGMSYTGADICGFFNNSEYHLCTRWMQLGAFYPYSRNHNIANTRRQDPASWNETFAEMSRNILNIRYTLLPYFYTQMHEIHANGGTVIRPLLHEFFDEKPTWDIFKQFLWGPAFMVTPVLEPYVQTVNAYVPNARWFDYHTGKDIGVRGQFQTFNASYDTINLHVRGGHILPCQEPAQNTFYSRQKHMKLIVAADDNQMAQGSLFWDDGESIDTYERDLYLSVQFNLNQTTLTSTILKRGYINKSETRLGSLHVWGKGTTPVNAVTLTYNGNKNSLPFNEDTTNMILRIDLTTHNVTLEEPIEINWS

With `O=C(O)[C@]1(O)C[C@@H](O)[C@@H](O)[C@H](O)C1` [Quinic acid] as the molecule, how does the “food aversion (food intake)” value ([1]; mice on chow (low fat) diet, high dose 100 mg/(kg*day), 12-18 weeks of age, FIG. 1) read?
The value was “caused food aversion”.

What about the “food aversion (food intake)” value ([1]; mice on high fat diet (60% fat), low dose 25 or high dose 100 mg/(kg*day), FIG. 2) of the same molecule?
The value was “did not cause food aversion”.

And the body weight gain ([2]; mice on high-fat diet)?
The body weight gain was “reduced weight gain”.

And the body weight gain ([2]; mice on low-fat (chow) diet)?
Its body weight gain is “reduced weight gain”.

What about the “fat deposition (fat mass, Echo-MRI)” value ([3]; 18 week-old mice on chow diet) of the same molecule?
Its value is “reduced fat deposition”.

And the “fat deposition (fat mass, Echo-MRI)” value ([3]; 18 week-old mice on high-fat diet)?
Its value is “reduced fat deposition”.

And the “carbohydrate metabolism (total carbohydrate oxidation = 4.55*VO2-3.21*VCO2)” value [4]?
Its value is “enhanced”.

What about the “energy consumption (oxygen consumption)” value [4] of the same molecule?
The value was “enhanced energy consumption”.

What about the glucose tolerance [5] of the same molecule?
Its glucose tolerance is “moderately enhanced glucose tolerance”.

And the insulin response ([6]; 22 week-old chow-fed mice, i.p. insulin 0.3 U/Kg, FIG. 8)?
Its insulin response is “did not alter insulin response”.

And the basal glycemia ([6]; 22 week-old high-fat fed mice, FIG. 9)?
Its basal glycemia is “lowered basal glycemia”.

And the insulin response ([6]; 22 week-old high-fat fed mice, i.p. insulin 0.75 U/Kg, FIG. 9)?
The insulin response was “did not significantly affect insulin response”.

And the “thermogenic function (rectal temperature)” value [7]?
Its value is “enhanced thermogenic function”.

And the “endurance performance (treadmill)” value [8]?
The value was “potentiates endurance performance”.

And the “inhibition of α-amylase” value [9]?
Its value is “poor inhibitor”.

And the effect on maltase [10]?
Its effect on maltase is “no effect”.

What about the effect on sucrase [11] of the same molecule?
The effect on sucrase was “no effect”.

And the effect on lipase [12]?
The effect on lipase was “no effect”.
